Patent EP2118065B1, “Substituted 1H-benz[de]isoquinoline-1,3-diones” (priority 2007, dated 2008)

Columns and labels:
caspase-6 = assay: Caspase-6 colorimetric assay in MOLT-4 cells; type: cell-based, Human; conditions: 5 µg/ml, 24 hrs
Protocol: Caspase 3 activity was measured by using caspase-3 colorimetric Assay kit (R&D Systems USA). Briefly, MOLT-4 (∼2x10^6cells) were treated with Compound 3f, camptothecin (5µM) and staurosporine (1µM) for 24h, and then cell centrifuged and pellet was lysed using 50µL cell lysis buffer. Cell lysates were mixed with 10µL of dithiothreitol (DTT) and 50µL reaction buffer (2X) containing 5 µL DEVD-pNA, a caspase-3 substrate, and incubated upto 24 hr at 37°C. Additional controls were included in this assay containing no cell lysate without substrate Enzyme-catalyzed release of pNA was monitored using a microplate reader at 405 nm (Fig. 2). Likewise, Caspase 6 activity was also measured using caspase-6 colorimetric Assay kit (R&D Systems USA). However, the enzyme and enzyme substrate (VEID-pNA) were different (Fig. 3). Treatment of the cells with Compound 3f induced caspase-3/6 activities. […] (Fig 2).

U-937 lymphoma = assay: MTT in vitro cytotoxicity; conditions: Homo sapiens, U-937, 96 h, read-out: IC50 value Lymphoma U-937
S-180 = assay: In vivo tumor growth inhibition study; design: species or system mice
Source text: Compound 3f was selected for tumor growth inhibition study. 18 mice each were taken for treated and control groups and inoculated with 1 x 10^6 S-180 cells. After sacrificing mice from the respective groups sequentially on days 9, 14 and 19 following drug treatment on day 1-7 at doses indicated, the ascites fluid from peritoneal cavities of animals were quantitatively transferred and the peritoneal cavities were washed with measured volume of physiological saline. The total number of tumor cells were counted and ascites fluid volume were measured. Averages ( x ± S.E.M.) were made of these two parameters and the percentage inhibitions [(1 - T/C) ×100] were calculated for each dose.

For `O=C1c2cccc3c([N+](=O)[O-])ccc(c23)C(=O)N1CCCCl` [Compound 3f, 6-Nitro-2-[3-(Chloropropyl)]-1H-benz[de]isoquinoline-1,3-dione], the Caspase-6 activity (caspase-6) was “maximum at 5 µg/ml for 24 hrs”, the IC50 (U-937 lymphoma) was 1950 nM and the “inhibition in S-180 tumor growth” value (S-180; 19th day, after drug treatment on day 1-7) was “about 20%”. The “inhibition in S-180 tumor growth” value (S-180; day 9, after drug treatment on day 1-7) was 84%.
